Measurements reported in patent US20240132431A1, “METHOD FOR ALKYLATING ACIDIC FUNCTIONAL GROUP” (Chugai Seiyaku Kabushiki Kaisha, priority 2021, published 2024).

Molecular target: T1, Bcl-2 protein (Recombinant Human Bcl-2 Protein) (Homo sapiens, UniProt P10415)
T1 construct: purchased Novus NBP2-34889
Experiment: Binding evaluation of mixture library compounds to Bcl-2 using AS-MS (affinity selection mass spectrometry)
Conditions: for ASMS ratio (%) n = 1 / ASMS ratio (%) n = 2: ASMS Ratio(%)=(A−C)/B×100; for ASMS ratio (%) n = 1: replicate n = 1; for ASMS ratio (%) n = 2: replicate n = 2
In short: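 Affinity selection MS: Bcl-2 20 μM + 1200-cpd mixture, […]/cpd, Tris pH 7.4 buffer w/ Tween-20, DTT; 1 h 23° C dark; P-2 spin SEC; MeCN/MeOH extraction; RP LC/MS. ASMS Ratio(%) = (A−C)/B×100.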

[1] = AS-MS, mixture of 1200 compounds, Bcl-2
[2] = AS-MS on the mixture of 1200 library compounds

T1 sequence (P10415 whole entry): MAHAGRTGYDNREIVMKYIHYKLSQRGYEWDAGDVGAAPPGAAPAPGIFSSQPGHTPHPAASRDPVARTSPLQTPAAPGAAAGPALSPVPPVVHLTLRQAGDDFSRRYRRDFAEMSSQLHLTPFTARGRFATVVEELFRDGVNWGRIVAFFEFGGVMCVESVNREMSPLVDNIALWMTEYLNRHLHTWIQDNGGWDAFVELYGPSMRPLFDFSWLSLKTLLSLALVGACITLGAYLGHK

Row | ASMS ratio (%) n = 1 [2] | ASMS ratio (%) n = 2 [2] | Molecule | also measured
1 | – | – | CCOc1cncc(-c2cc(OC)c(CN3CCN(c4ccc(C(=O)NCC56CC7CC(CC(C7)C5)C6)nn4)CC3)c(OC)c2)c1 [B1A086-01, N-(1-Adamantylmethyl)-6-[4-[[4-(5-ethoxypyridin-3-yl)-2,6-dimethoxyphenyl]methyl]piperazin-1-yl]pyridazine-3-carboxamide] | ASMS ratio (%) n = 1 [1]: 0.0%; ASMS ratio (%) n = 2 [1]: −14.8%
2 | 3.6% | 2.3% | CCOc1cncc(-c2csc(C(=O)N3CCN(c4ccc(C(=O)Nc5ccc(OC)cc5)cc4)CC3)c2)c1 [B1O024-01, 4-[4-[4-(5-Ethoxypyridin-3-yl)thiophene-2-carbonyl]piperazin-1-yl]-N-(4-methoxyphenyl)benzamide] | –
3 | – | – | CCOc1cccc(-c2cc(C(=O)N3CCN(c4ccc(C(=O)NS(=O)(=O)CCC(F)(F)F)cc4)CC3)cc(C(C)(C)C)c2)c1 [B2N037-01, 4-[4-[3-tert-Butyl-5-(3-ethoxyphenyl)benzoyl]piperazin-1-yl]-N-(3,3,3-trifluoropropylsulfonyl)benzamide] | ASMS ratio (%) (n = 1): 0.0%; ASMS ratio (%) (n = 2): 0.0%
4 | −4.9% | −3.5% | CCOc1cccc(C#Cc2ccccc2CN2CCN(c3ccc(C(=O)N(C)CC45CC6CC(CC(C6)C4)C5)nn3)CC2)c1 [B3A095-01, N-(1-Adamantylmethyl)-6-[4-[[2-[2-(3-ethoxyphenyl)ethynyl]phenyl]methyl]piperazin-1-yl]-N-methylpyridazine-3-carboxamide] | –
5 | – | – | CCOc1cccc(-c2cc(CN3CCN(c4ccc(C(=O)N(CC)CC)nn4)CC3)cc(OC(C)C)c2)c1 [B4J083-01, 6-[4-[[3-(3-Ethoxyphenyl)-5-propan-2-yloxyphenyl]methyl]piperazin-1-yl]-N,N-diethylpyridazine-3-carboxamide] | ASMS ratio (%) n = 1 (AS-MS, mixture library, Bcl-2): 0.0%; ASMS ratio (%) n = 2 (AS-MS, mixture library, Bcl-2): 0.0%
6 | 2.9% | −1.2% | CCOc1cccc(-c2cnn(-c3cc(C(=O)N4CCN(c5ccc(C(=O)Nc6ccc(OC)cc6)nn5)CC4)cc(C(F)(F)F)c3)c2)c1 [B1O021-01, 6-[4-[3-[4-(3-Ethoxyphenyl)pyrazol-1-yl]-5-(trifluoromethyl)benzoyl]piperazin-1-yl]-N-(4-methoxyphenyl)pyridazine-3-carboxamide] | –
7 | – | – | 4-[4-[3-[4-(5-Ethoxypyridin-3-yl)pyrazol-1-yl]-5-(trifluoromethyl)benzoyl]piperazin-1-yl]-N-propylbenzamide [B1M031-01] | ASMS ratio (%) n = 1 [1]: 0.0%; ASMS ratio (%) n = 2 [1]: −2.4%
8 | 3.3% | −2.0% | CCOc1cncc(-c2cc(CN3CCN(c4ccc(C(=O)Nc5ccc(OC)cc5)nn4)CC3)cc(OC(F)(F)F)c2)c1 [B1O090-01, 6-[4-[[3-(5-Ethoxypyridin-3-yl)-5-(trifluoromethoxy)phenyl]methyl]piperazin-1-yl]-N-(4-methoxyphenyl)pyridazine-3-carboxamide] | –
9 | – | – | CCOc1cncc(-c2cc(CN3CCN(c4ccc(C(=O)NS(C)(=O)=O)cc4)CC3)cc(OC(F)(F)F)c2)c1 [B2I064-01, 4-[4-[[3-(5-Ethoxypyridin-3-yl)-5-(trifluoromethoxy)phenyl]methyl]piperazin-1-yl]-N-methylsulfonylbenzamide] | ASMS ratio (%) (n = 1): 0.0%; ASMS ratio (%) (n = 2): 0.0%
10 | 0.6% | −0.3% | CCOc1cccc(C#Cc2cncc(C(=O)N3CCN(c4ccc(C(=O)N(C)CC56CC7CC(CC(C7)C5)C6)nn4)CC3)c2)c1 [B3A009-01, N-(1-Adamantylmethyl)-6-[4-[5-[2-(3-ethoxyphenyl)ethynyl]pyridine-3-carbonyl]piperazin-1-yl]-N-methylpyridazine-3-carboxamide] | –
11 | – | – | CCOc1cccc(-c2ccc(C(=O)N3CCN(c4ccc(C(=O)NS(=O)(=O)c5ccc(NCCSc6ccccc6)c([N+](=O)[O-])c5)cc4)CC3)cc2F)c1 [B2Q027-01, 4-[4-[4-(3-Ethoxyphenyl)-3-fluorobenzoyl]piperazin-1-yl]-N-[3-nitro-4-(2-phenylsulfanylethylamino)phenyl]sulfonylbenzamide] | ASMS ratio (%) n = 1 (AS-MS, mixture library, Bcl-2): 0.2%; ASMS ratio (%) n = 2 (AS-MS, mixture library, Bcl-2): −2.5%
12 | – | – | CCOc1cccc(-c2cc(CN3CCN(c4ccc(C(=O)NS(=O)(=O)CC56CC7CC(CC(C7)C5)C6)cc4)CC3)cc(OC(F)(F)F)c2)c1 [B2A063-01, N-(1-Adamantylmethylsulfonyl)-4-[4-[[3-(3-ethoxyphenyl)-5-(trifluoromethoxy)phenyl]methyl]piperazin-1-yl]benzamide] | ASMS ratio (%) n = 1 (AS-MS, mixture library, Bcl-2): 0.5%; ASMS ratio (%) n = 2 (AS-MS, mixture library, Bcl-2): 3.3%
13 | – | – | CCOc1cccc(-c2cc(C(=O)N3CCN(c4ccc(C(=O)NS(=O)(=O)c5ccc(NCCSc6ccccc6)c(C(F)(F)F)c5)nn4)CC3)cc(C(F)(F)F)c2)c1 [B2R017-01, 6-[4-[3-(3-ethoxyphenyl)-5-(trifluoromethyl)benzoyl]piperazin-1-yl]-N-[4-(2-phenylsulfanylethylamino)-3-(trifluoromethyl)phenyl]sulfonylpyridazine-3-carboxamide] | ASMS ratio (%) (n = 1): 32.9%; ASMS ratio (%) (n = 2): 27.2%
14 | 0.1% | 0.2% | CCOc1cncc(-c2ccccc2CCC(=O)N2CCN(c3ccc(C(=O)Nc4ccc(OC)cc4)cc3)CC2)c1 [B1O034-01, 4-[4-[3-[2-(5-Ethoxypyridin-3-yl)phenyl]propanoyl]piperazin-1-yl]-N-(4-methoxyphenyl)benzamide] | –
15 | – | – | CCOc1cccc(-c2cc(CN3CCN(c4ccc(C(=O)NS(=O)(=O)c5ccc(NCCSc6ccccc6)c(C(F)(F)F)c5)nn4)CC3)cc(OC(C)C)c2)c1 [B2R083-01, 6-[4-[[3-(3-Ethoxyphenyl)-5-propan-2-yloxyphenyl]methyl]piperazin-1-yl]-N-[4-(2-phenylsulfanylethylamino)-3-(trifluoromethyl)phenyl]sulfonylpyridazine-3-carboxamide] | ASMS ratio (%) (n = 1): 31.9%; ASMS ratio (%) (n = 2): −11.1%
16 | 2.7% | 0.0% | CCOc1cccc(C#Cc2ccccc2CN2CCN(c3ccc(C(=O)Nc4ccc(OC)cc4)nn3)CC2)c1 [B1O095-01, 6-[4-[[2-[2-(3-Ethoxyphenyl)ethynyl]phenyl]methyl]piperazin-1-yl]-N-(4-methoxyphenyl)pyridazine-3-carboxamide] | –
17 | 3.8% | 3.2% | CCOc1cccc(-c2cnn(-c3cc(C(=O)N4CCN(c5ccc(C(=O)N(CC)CC)cc5)CC4)cc(C(F)(F)F)c3)c2)c1 [B4J043-01, 4-[4-[3-[4-(3-Ethoxyphenyl)pyrazol-1-yl]-5-(trifluoromethyl)benzoyl]piperazin-1-yl]-N,N-diethylbenzamide] | –
18 | – | – | 4-[4-[[4-(5-Ethoxypyridin-3-yl)-3-methylphenyl]methyl]piperazin-1-yl]-N-propylbenzamide [B1M064-01] | ASMS ratio (%) n = 1 [1]: 5.4%; ASMS ratio (%) n = 2 [1]: −4.3%
19 | 3.8% | −5.3% | CCOc1cccc(-c2cc(CN3CCN(c4ccc(C(=O)Nc5ccc(OC)cc5)nn4)CC3)cc(OC(F)(F)F)c2)c1 [B1O089-01, 6-[4-[[3-(3-Ethoxyphenyl)-5-(trifluoromethoxy)phenyl]methyl]piperazin-1-yl]-N-(4-methoxyphenyl)pyridazine-3-carboxamide] | –

Row | Molecule | ASMS ratio (%) n = 1 [2] | ASMS ratio (%) n = 2 [2] | also measured
20 | CCOc1cncc(-c2ccc(CN3CCN(c4ccc(C(=O)N(CC)CC)cc4)CC3)cc2C)c1 [B4J048-01, 4-[4-[[4-(5-Ethoxypyridin-3-yl)-3-methylphenyl]methyl]piperazin-1-yl]-N,N-diethylbenzamide] | 1.2% | −2.1% | –
